Test results published in patent US20250051357A1, “SOLID FORMS OF A GPR119 AGONIST AND PROCESSES FOR THE PREPARATION THEREOF” (MANKIND PHARMA LTD., priority 2023, published 2025).
Where “and” joins values, the source holds several entries; their conditions need not be identical. Equal entries are not always repeated.

Test: Particle size analysis, Malvern particle size analyzer (Mastersizer 3000)
Format: physicochemical
Details: particle size distribution d90 of the isolated batch; dispersant water, Tween-80 paste, Mie model
Protocol: Particle size analysis was performed using a Malvern particle size analyzer. (Mastersizer 3000, Malvern Instrument Ltd).
Weigh accurately 100 mg of sample in 100 ml beaker. Add 3 drops of Tween-80 and 1 mL of water and make a paste with the help of glass rod. Then add 10 ml water and sonicate externally for 10 seconds with continued shaking.

Row | Structure (SMILES) | PSD (d90)
1 | CCc1cnc(N2CCC([C@H](C)Oc3nn4cc(-c5ccc(S(C)(=O)=O)cc5F)nc4s3)CC2)nc1 [Form M-1, 2-((S)-1-(1-(5-ethyl-pyrimidin-2-yl)piperidin-4-yl)ethoxy)-6-(2-fluoro-4-(methylsulfonyl)phenyl) imidazo[2,1-b][1,3,4]thiadiazole] | 84.9 μm and 62.4 μm and 106 μm
2 | CCc1cnc(N2CCC([C@H](C)Oc3nn4cc(-c5ccc(S(C)(=O)=O)cc5F)nc4s3)CC2)nc1 [Form M-2, 2-((S)-1-(1-(5-ethyl-pyrimidin-2-yl)piperidin-4-yl)ethoxy)-6-(2-fluoro-4-(methylsulfonyl)phenyl) imidazo[2,1-b][1,3,4]thiadiazole] | 99.8 μm
3 | CCc1cnc(N2CCC([C@H](C)Oc3nn4cc(-c5ccc(S(C)(=O)=O)cc5F)nc4s3)CC2)nc1 [Form M-4, 2-((S)-1-(1-(5-ethyl-pyrimidin-2-yl)piperidin-4-yl)ethoxy)-6-(2-fluoro-4-(methylsulfonyl)phenyl) imidazo[2,1-b][1,3,4]thiadiazole] | 30-60 μm
4 | CCc1cnc(N2CCC([C@H](C)Oc3nn4cc(-c5ccc(S(C)(=O)=O)cc5F)nc4s3)CC2)nc1 [amorphous Form, 2-((S)-1-(1-(5-ethyl-pyrimidin-2-yl)piperidin-4-yl)ethoxy)-6-(2-fluoro-4-(methylsulfonyl)phenyl) imidazo[2,1-b][1,3,4]thiadiazole] | 50-80 μm
